Measured values published in ChEMBL document CHEMBL1201862, “PubChem BioAssay data set” (2004).
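Results reflect a 48-hour exposure of cells in 96-well plates to compound at five concentrations. The concentration for 50% growth inhibition is given as GI50.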 Calls of active or inactive are those of the source. Cut-off read from the data, not from the text of the source: active = GI50 up to about 1.1 µM and inactive = higher.

How the values were obtained:
Experiment in all cases: DTP human tumour cell line panel, 48 h
HCT-15 = tested on: HCT-15
SF-539 = tested on: SF-539
PC-3 = tested on: PC-3
SN12C = tested on: SN12C
ACHN = tested on: ACHN
CCRF-CEM = tested on: CCRF-CEM
TK-10 = tested on: TK-10
CAKI-1 = tested on: CAKI-1
HCT-116 = tested on: HCT-116
HOP-92 = tested on: HOP-92
LOX IMVI = tested on: LOX IMVI
RXF 393 = tested on: RXF 393
OVCAR-4 = tested on: OVCAR-4
OVCAR-8 = tested on: OVCAR-8
MDA-MB-435 = tested on: MDA-MB-435
HOP-62 = tested on: HOP-62
MDA-MB-231 = tested on: MDA-MB-231
NCI-H522 = tested on: NCI-H522
HL-60 = tested on: HL-60
A498 = tested on: A498
SK-MEL-5 = tested on: SK-MEL-5
SNB-19 = tested on: SNB-19
SF-295 = tested on: SF-295
SK-MEL-2 = tested on: SK-MEL-2
UACC-257 = tested on: UACC-257
NCI/ADR-RES = tested on: NCI/ADR-RES
SK-OV-3 = tested on: SK-OV-3
Hs-578T = tested on: Hs-578T
NCI-H226 = tested on: NCI-H226
HCC 2998 = tested on: HCC 2998
T47D = tested on: T47D
MCF7 = tested on: MCF7
HT-29 = tested on: HT-29
UO-31 = tested on: UO-31
U-251 = tested on: U-251
M14 = tested on: M14
NCI-H23 = tested on: NCI-H23
OVCAR-5 = tested on: OVCAR-5
KM12 = tested on: KM12
OVCAR-3 = tested on: OVCAR-3
MDA-N = tested on: MDA-N
SNB-75 = tested on: SNB-75
RPMI-8226 = tested on: RPMI-8226
NCI-H460 = tested on: NCI-H460
A549 = tested on: A549
SW-620 = tested on: SW-620
COLO 205 = tested on: COLO 205
MOLT-4 = tested on: MOLT-4
K562 = tested on: K562
786-0 = tested on: 786-0
IGROV-1 = tested on: IGROV-1
SF-268 = tested on: SF-268
SR = tested on: SR
EKVX = tested on: EKVX
DU-145 = tested on: DU-145
Malme-3M = tested on: Malme-3M
SK-MEL-28 = tested on: SK-MEL-28
UACC-62 = tested on: UACC-62
BT-549 = tested on: BT-549

For `O=C1OCC=C1COC1OC(CO)C(O)C(O)C1O` (stereo not drawn), the GI50 (HCT-15) was > 100 µM, the GI50 (SF-539) was > 100 µM (inactive) and the GI50 (PC-3) was > 100 µM (inactive). For the same compound, the GI50 (SN12C) was > 100 µM (inactive), the GI50 (ACHN) was > 100 µM (inactive) and the GI50 (CCRF-CEM) was 30.5 µM (inactive). The GI50 (TK-10) was > 100 µM (inactive), the GI50 (CAKI-1) was > 100 µM (inactive) and the GI50 (HCT-116) was > 100 µM (inactive). The GI50 (HOP-92) was > 100 µM (inactive), the GI50 (LOX IMVI) was > 100 µM (inactive) and the GI50 (RXF 393) was > 100 µM (inactive). The GI50 (OVCAR-4) was > 100 µM (inactive), the GI50 (OVCAR-8) was > 100 µM (inactive) and the GI50 (MDA-MB-435) was > 100 µM (inactive). The GI50 (HOP-62) was > 100 µM (inactive), the GI50 (MDA-MB-231) was > 100 µM (inactive) and the GI50 (NCI-H522) was 17.2 µM (inactive). The GI50 (HL-60) was 73.6 µM (inactive), the GI50 (A498) was > 100 µM (inactive) and the GI50 (SK-MEL-5) was > 100 µM (inactive). For the same compound, the GI50 (SNB-19) was > 100 µM (inactive), the GI50 (SF-295) was > 100 µM (inactive) and the GI50 (SK-MEL-2) was > 100 µM (inactive). The GI50 (UACC-257) was > 100 µM (inactive), the GI50 (NCI/ADR-RES) was > 100 µM (inactive) and the GI50 (SK-OV-3) was > 100 µM (inactive). The GI50 (Hs-578T) was > 100 µM (inactive), the GI50 (NCI-H226) was > 100 µM (inactive) and the GI50 (HCC 2998) was > 100 µM (inactive). For the same compound, the GI50 (T47D) was > 100 µM (inactive), the GI50 (MCF7) was > 100 µM (inactive) and the GI50 (HT-29) was > 100 µM (inactive). For the same compound, the GI50 (UO-31) was > 100 µM (inactive), the GI50 (U-251) was > 100 µM (inactive) and the GI50 (M14) was > 100 µM (inactive). For the same compound, the GI50 (NCI-H23) was > 100 µM (inactive), the GI50 (OVCAR-5) was > 100 µM (inactive) and the GI50 (KM12) was > 100 µM (inactive). The GI50 (OVCAR-3) was > 100 µM (inactive), the GI50 (MDA-N) was > 100 µM (inactive) and the GI50 (SNB-75) was > 100 µM (inactive). For the same compound, the GI50 (RPMI-8226) was > 100 µM (inactive), the GI50 (NCI-H460) was > 100 µM (inactive) and the GI50 (A549) was > 100 µM (inactive). For the same compound, the GI50 (SW-620) was > 100 µM (inactive), the GI50 (COLO 205) was > 100 µM (inactive) and the GI50 (MOLT-4) was > 100 µM (inactive). For the same compound, the GI50 (K562) was > 100 µM (inactive), the GI50 (786-0) was > 100 µM (inactive) and the GI50 (IGROV-1) was > 100 µM (inactive). The GI50 (SF-268) was > 100 µM (inactive), the GI50 (SR) was 36.2 µM (inactive) and the GI50 (EKVX) was > 100 µM (inactive). The GI50 (DU-145) was > 100 µM (inactive), the GI50 (Malme-3M) was > 100 µM (inactive) and the GI50 (SK-MEL-28) was > 100 µM (inactive).

`CN(C)CCCn1c(-c2ccc(Br)cc2)cs/c1=N\c1ccccc1` was tested, and the GI50 (HCT-15) was 21.1 µM, the GI50 (SF-539) was 14 µM (inactive) and the GI50 (PC-3) was 11.2 µM (inactive). The GI50 (SN12C) was 18.5 µM (inactive), the GI50 (ACHN) was 16.8 µM (inactive) and the GI50 (CCRF-CEM) was 28.8 µM (inactive). The GI50 (TK-10) was 15.9 µM (inactive), the GI50 (CAKI-1) was 10.2 µM (inactive) and the GI50 (HOP-92) was 15.2 µM (inactive). The GI50 (RXF 393) was 12.9 µM (inactive), the GI50 (OVCAR-4) was 16.1 µM (inactive) and the GI50 (OVCAR-8) was 15.9 µM (inactive). For the same compound, the GI50 (MDA-MB-435) was 18.7 µM (inactive), the GI50 (HOP-62) was 12.9 µM (inactive) and the GI50 (MDA-MB-231) was 15.1 µM (inactive). For the same compound, the GI50 (HL-60) was 1.4 µM (inactive), the GI50 (A498) was 8.75 µM (inactive) and the GI50 (SNB-19) was 14.5 µM (inactive). For the same compound, the GI50 (SF-295) was 11.2 µM (inactive), the GI50 (SK-MEL-2) was 15.7 µM (inactive) and the GI50 (UACC-257) was 14.6 µM (inactive). For the same compound, the GI50 (NCI/ADR-RES) was 14.3 µM (inactive), the GI50 (SK-OV-3) was 18.3 µM (inactive) and the GI50 (NCI-H226) was 13.2 µM (inactive). The GI50 (HCC 2998) was 5.38 µM (inactive), the GI50 (UACC-62) was 13.7 µM (inactive) and the GI50 (MCF7) was 16 µM (inactive). For the same compound, the GI50 (UO-31) was 10.4 µM (inactive), the GI50 (U-251) was 49.2 µM (inactive) and the GI50 (M14) was 12.6 µM (inactive). The GI50 (NCI-H23) was 10.7 µM (inactive), the GI50 (OVCAR-5) was 16.5 µM (inactive) and the GI50 (KM12) was 13 µM (inactive). The GI50 (OVCAR-3) was 10.6 µM (inactive), the GI50 (BT-549) was 15.4 µM (inactive) and the GI50 (MDA-N) was 13.8 µM (inactive). For the same compound, the GI50 (SNB-75) was 15.8 µM (inactive), the GI50 (RPMI-8226) was 12.6 µM (inactive) and the GI50 (NCI-H460) was 12.2 µM (inactive). For the same compound, the GI50 (A549) was 17.5 µM (inactive), the GI50 (MOLT-4) was 15.4 µM (inactive) and the GI50 (K562) was 11.6 µM (inactive). For the same compound, the GI50 (SF-268) was 17.1 µM (inactive), the GI50 (SR) was 14 µM (inactive) and the GI50 (EKVX) was 10.8 µM (inactive). For the same compound, the GI50 (SK-MEL-28) was 18.5 µM (inactive).

`CSCC[C@H](NC(=O)[C@H](CC(C)C)NC(=O)[C@@H](Cc1ccccc1)NC(=O)CNC(=O)[C@@H](NC(=O)[C@H](C)NC(=O)[C@H](Cc1c[nH]c2ccccc12)NC(=O)[C@H](CCC(N)=O)NC(=O)[C@H](N)CC(N)=O)C(C)C)C(N)=O` was tested, and the GI50 (HCT-15) was > 12.5 µM, the GI50 (SF-539) was > 12.5 µM (inactive) and the GI50 (PC-3) was > 12.5 µM (inactive). For the same compound, the GI50 (SN12C) was > 12.5 µM (inactive), the GI50 (ACHN) was > 12.5 µM (inactive) and the GI50 (CCRF-CEM) was > 12.5 µM (inactive). For the same compound, the GI50 (TK-10) was > 12.5 µM (inactive), the GI50 (CAKI-1) was > 12.5 µM (inactive) and the GI50 (HCT-116) was > 12.5 µM (inactive). For the same compound, the GI50 (HOP-92) was > 12.5 µM (inactive), the GI50 (LOX IMVI) was > 12.5 µM (inactive) and the GI50 (RXF 393) was > 12.5 µM (inactive). For the same compound, the GI50 (OVCAR-4) was > 12.5 µM (inactive), the GI50 (OVCAR-8) was > 12.5 µM (inactive) and the GI50 (MDA-MB-435) was > 12.5 µM (inactive). The GI50 (HOP-62) was > 12.5 µM (inactive), the GI50 (MDA-MB-231) was > 12.5 µM (inactive) and the GI50 (HL-60) was > 12.5 µM (inactive). The GI50 (A498) was > 12.5 µM (inactive), the GI50 (SK-MEL-5) was > 12.5 µM (inactive) and the GI50 (SNB-19) was > 12.5 µM (inactive). For the same compound, the GI50 (SF-295) was > 12.5 µM (inactive), the GI50 (UACC-257) was > 12.5 µM (inactive) and the GI50 (NCI/ADR-RES) was > 12.5 µM (inactive). The GI50 (SK-OV-3) was > 12.5 µM (inactive), the GI50 (Hs-578T) was > 12.5 µM (inactive) and the GI50 (NCI-H226) was > 12.5 µM (inactive). The GI50 (HCC 2998) was > 12.5 µM (inactive), the GI50 (T47D) was > 12.5 µM (inactive) and the GI50 (UACC-62) was > 12.5 µM (inactive). For the same compound, the GI50 (MCF7) was > 12.5 µM (inactive), the GI50 (HT-29) was > 12.5 µM (inactive) and the GI50 (U-251) was > 12.5 µM (inactive). For the same compound, the GI50 (M14) was > 12.5 µM (inactive), the GI50 (NCI-H23) was > 12.5 µM (inactive) and the GI50 (OVCAR-5) was > 12.5 µM (inactive). The GI50 (KM12) was > 12.5 µM (inactive), the GI50 (OVCAR-3) was > 12.5 µM (inactive) and the GI50 (MDA-N) was > 12.5 µM (inactive). The GI50 (SNB-75) was > 12.5 µM (inactive), the GI50 (RPMI-8226) was > 12.5 µM (inactive) and the GI50 (NCI-H460) was > 12.5 µM (inactive). For the same compound, the GI50 (A549) was > 12.5 µM (inactive), the GI50 (SW-620) was > 12.5 µM (inactive) and the GI50 (COLO 205) was > 12.5 µM (inactive). For the same compound, the GI50 (MOLT-4) was > 12.5 µM (inactive), the GI50 (K562) was > 12.5 µM (inactive) and the GI50 (786-0) was > 12.5 µM (inactive). The GI50 (IGROV-1) was > 12.5 µM (inactive), the GI50 (SF-268) was > 12.5 µM (inactive) and the GI50 (SR) was 0.0269 µM (active). For the same compound, the GI50 (EKVX) was > 12.5 µM (inactive), the GI50 (DU-145) was > 12.5 µM (inactive) and the GI50 (Malme-3M) was > 12.5 µM (inactive). For the same compound, the GI50 (SK-MEL-28) was > 12.5 µM (inactive).
